This note sets out measurements from US12605360B2, “Compositions and methods using xanthan gum to stabilize at least one urolithin in an aqueous matrix” (SOCIETE DES PRODUITS NESTLE S.A., priority 2020, dated 2026).

SMILES strings stand for the structures.

Data set [1] in a line: Suspension of Urolithin A upon reconstitution of powder in water. It is filed as physicochemical. The method, then: • 1. Initially the base selected was brown rice syrup powder to which UA was added. […] UA forms a suspension in oil, so another experiment used brown rice syrup powder with canola oil powder and whey protein.
Specifically, different gums and concentrations of gums were investigated with UA and a filler that was brown rice syrup powder: • 1. Guar gum • 2. PHGG • 3. Combination of guar and xanthan • 4. Acacia gum • 5. Gellan gum • 6. FMC Gum blend • 7. Xanthan gum
Table 1 (below) sets forth the formulations of the samples testing various gums with UA. FIGS. 3A and 3B set forth the results from these samples.
Some embodiments of the compositions disclosed herein include fruit flavor and thus citric acid. […] Table 2 (below) sets forth the formulations of the samples testing various gums with UA and citric acid. FIGS. 4A and 4B sets forth the results from these samples.
For each sample, after mixing the powder with water, five minutes elapsed, then the suspension was mixed again, and then viscosity was measured. Out of the various experiments, xanthan gum provided the best solution of not only keeping UA in suspension but also the desired viscosity, easily dissolved, and no off taste/odor to the product.
A range of xanthan gum amounts were then studied (Table 3 and FIG. 5). […]

Data set [2] in a line: Solubility of Urolithin A. It is filed as physicochemical. From the text:
The present disclosure addresses the inventors' recognition that Urolithin A (UA) is insoluble in water, such that a powder containing UA as the main functional ingredient presented the challenge of keeping UA in suspension upon reconstitution of the powder with water. In this regard, UA being insoluble promotes settling of UA at the bottom of the reconstitution container almost immediately. The present disclosure includes various ways of stabilizing Urolithin A in an aqueous matrix, such that when a powder containing UA is reconstituted, the UA remains in suspension.
Comparative experimental data was generated to investigate the possibility of stabilization of UA in an aqueous matrix.

Take `O=c1oc2cc(O)ccc2c2ccc(O)cc12` [Urolithin A]: the “suspension of UA in an oil matrix” value in data set [1] was “forms a good suspension”. The solubility in oil result in data set [2] (oil) was “sparingly soluble”. Further, the solubility in water entry in data set [2] (water) is listed as “insoluble”.
